US12286440B2, “Penam derivative or salt thereof, pharmaceutical composition, and applications thereof” (priority 2018, dated 2025)
≈ marks a conversion by molar mass, not a printed value.

Experiments:
[1] = test system: CTX-M-15-containing Escherichia coli strain (TK-1747); experiment: Antibacterial activity evaluation test, MIC by CLSI broth microdilution; assay type: cell-based; settings: cation-adjusted Mueller Hinton medium, 35° C., 16 to 20 hours
Experimental: (§1) The minimum inhibitory concentration (MIC) was measured according to the Clinical and Laboratory Standards Institute (CLSI) standard method by using the following broth microdilution method.
(§2) As bacteria, a Pseudomonas aeruginosa strain ATCC27853, an AmpC-derepressed Pseudomonas aeruginosa mutant strain (S-3028), an IMP-1-containing Pseudomonas aeruginosa strain (S-2838), a VIM-2-containing Pseudomonas aeruginosa strain (S-3779), a GES-19 and GES-20-containing Pseudomonas aeruginosa strain (S-3759), a CTX-M-15-containing Escherichia coli strain (TK-1747), a KPC-2-containing Klebsiella pneumoniae strain (Y-995), an OXA-48-containing Klebsiella pneumoniae strain (Y-1062), and an NDM-1-containing Klebsiella pneumoniae strain (Y-1007) were used. The test bacterial cells that had been cultured overnight on a Mueller Hinton agar medium were scraped off, suspended at a density equivalent to 0.5 McFarland standard, and diluted 10-fold, thereby obtaining an inoculum. A cation-adjusted Mueller Hinton medium containing a test compound was inoculated with 0.005 mL of the inoculum, and the cells were cultured at 35° C. for 16 to 20 hours. The minimum drug concentration at which the growth of bacteria was not visually observed was defined as MIC […].
(§3) An antibacterial activity evaluation test was performed in the same manner as in Test Example 1.

[2] = test system: NDM-1-containing Klebsiella pneumoniae strain (Y-1007); experiment: as above; assay type: cell-based; settings: cation-adjusted Mueller Hinton medium, 35° C., 16 to 20 hours
Experimental: as §1, §2, §3

[3] = test system: KPC-2-containing Klebsiella pneumoniae strain (Y-995); experiment: as above; assay type: cell-based; settings: cation-adjusted Mueller Hinton medium, 35° C., 16 to 20 hours
Experimental: as §1, §2, §3

[4] = test system: AmpC-derepressed Pseudomonas aeruginosa mutant strain (S-3028); experiment: as above; assay type: cell-based; settings: cation-adjusted Mueller Hinton medium, 35° C., 16 to 20 hours
Experimental: as §1, §2, §3

[5] = test system: IMP-1-containing Pseudomonas aeruginosa strain (S-2838); experiment: as above; assay type: cell-based; settings: cation-adjusted Mueller Hinton medium, 35° C., 16 to 20 hours
Experimental: as §1, §2, §3

[6] = test system: VIM-2-containing Pseudomonas aeruginosa strain (S-3779); experiment: as above; assay type: cell-based; settings: cation-adjusted Mueller Hinton medium, 35° C., 16 to 20 hours
Experimental: as §1, §2, §3

[7] = test system: Pseudomonas aeruginosa strain ATCC27853; experiment: as above; assay type: cell-based; settings: cation-adjusted Mueller Hinton medium, 35° C., 16 to 20 hours
Experimental: as §1, §2, §3

[8] = test system: OXA-48-containing Klebsiella pneumoniae strain (Y-1062); experiment: as above; assay type: cell-based; settings: cation-adjusted Mueller Hinton medium, 35° C., 16 to 20 hours
Experimental: as §1, §2, §3

[9] = test system: GES-19 and GES-20-containing Pseudomonas aeruginosa strain (S-3759); experiment: as above; assay type: cell-based; settings: cation-adjusted Mueller Hinton medium, 35° C., 16 to 20 hours
Experimental: as §1, §2, §3

[10] = test system: multidrug-resistant Pseudomonas aeruginosa strain (S-2838 strain); experiment: Test for protection against systemic infection in mouse with multidrug-resistant Pseudomonas aeruginosa; assay type: in vivo, ICR male SPF mice; settings: sc, 72 h, read-out: survival rate
Experimental: As mice, ICR male SPF mice (4 weeks old: 10 mice per group) were used. Clinically isolated multidrug-resistant Pseudomonas aeruginosa strain (S-2838 strain) cultured overnight on a Mueller-Hinton agar plate at 37° C. was cultured on a cation-adjusted Mueller Hinton medium for 5 hours, and then diluted 20-fold with a 10% mucin/phosphate buffer, thereby preparing an inoculum. An infection was induced by intraperitoneally inoculating the mice with the inoculum at 0.5 mL (about 10^6 CFU/mouse). Each test compound was dissolved in physiological saline, and 1 hour after the infection, the compound was subcutaneously administered once to the mice at 40 mg/kg. The control group was administered with the same amount of physiological saline used as a vehicle. The number of surviving mice was recorded 3 days after the infection.
A test for protection against systemic infection in a mouse with multidrug-resistant Pseudomonas aeruginosa was performed in the same manner as in Test Example 2.

## Nc1nc(/C(=N/OC2(C(=O)O)CCC2)C(=O)N[C@@H]2C(=O)N3C[C@@](C(=O)O)(N4CCN(NC(=O)C(=O)c5ccc(O)c(O)c5Cl)C4=O)S[C@H]23)cs1 [Example 19, (3R,5R,6R)-6-((Z)-2-(2-aminothiazol-4-yl)-2-((1-carboxycyclobutoxy)imino)acetamido)-3-(3-(2-(2-chloro-3,4-dihydroxyphenyl)-2-oxoacetamido)-2-oxoimidazolidin-1-yl)-7-oxo-4-thia-1-azabicyclo[3.2.0]heptane-3-carboxylate]
[1]
  MIC, Escherichia coli TK-1747: 0.5 µg/mL (≈ 0.664 µM)
[2]
  MIC, Klebsiella pneumoniae Y-1007: < 0.06 µg/mL
[3]
  MIC, Klebsiella pneumoniae Y-995: 0.25 µg/mL (≈ 0.332 µM)
[4]
  MIC, Pseudomonas aeruginosa S-3028: 2 µg/mL (≈ 2.66 µM)
[5]
  MIC, Pseudomonas aeruginosa S-2838: 0.25 µg/mL (≈ 0.332 µM)
[6]
  MIC, Pseudomonas aeruginosa S-3779: 0.25 µg/mL (≈ 0.332 µM)
[7]
  MIC, Pseudomonas aeruginosa ATCC 27853: 0.25 µg/mL (≈ 0.332 µM)
[8]
  MIC, Klebsiella pneumoniae Y-1062: 0.12 µg/mL (≈ 0.159 µM)
[9]
  MIC, Pseudomonas aeruginosa S3759: 0.25 µg/mL (≈ 0.332 µM)

## CC(C)(O/N=C(\C(=O)N[C@@H]1C(=O)N2C[C@@](C(=O)O)(N3CCN(NC(=O)C(=O)NCCNC(=O)c4ccc(O)c(O)c4Cl)C3=O)S[C@H]12)c1csc(N)n1)C(=O)O [Example 68, (3R,5R,6R)-6-((Z)-2-(2-aminothiazol-4-yl)-2-(((2-carboxypropan-2-yl)oxy)imino)acetamido)-3-(3-(2-((2-(2-chloro-3,4-dihydroxybenzamido)ethyl)amino)-2-oxoacetamido)-2-oxoimidazolidin-1-yl)-7-oxo-4-thia-1-azabicyclo[3.2.0]heptane-3-carboxylate]
[1]
  MIC, Escherichia coli TK-1747: 1 µg/mL (≈ 1.21 µM)
[2]
  MIC, Klebsiella pneumoniae Y-1007: < 0.06 µg/mL
[3]
  MIC, Klebsiella pneumoniae Y-995: 0.5 µg/mL (≈ 0.604 µM)
[4]
  MIC, Pseudomonas aeruginosa S-3028: 0.25 µg/mL (≈ 0.302 µM)
[5]
  MIC, Pseudomonas aeruginosa S-2838: 1 µg/mL (≈ 1.21 µM)
[6]
  MIC, Pseudomonas aeruginosa S-3779: 2 µg/mL (≈ 2.42 µM)
[7]
  MIC, Pseudomonas aeruginosa ATCC 27853: 1 µg/mL (≈ 1.21 µM)
[8]
  MIC, Klebsiella pneumoniae Y-1062: 1 µg/mL (≈ 1.21 µM)
[9]
  MIC, Pseudomonas aeruginosa S3759: 4 µg/mL (≈ 4.84 µM)

## CC(C)[C@H](O/N=C(\C(=O)N[C@@H]1C(=O)N2C[C@@](C(=O)O)(N3CCN(NC(=O)C(=O)c4ccc(O)c(O)c4Cl)C3=O)S[C@H]12)c1csc(N)n1)C(=O)O [Example 114, (3R,5R,6R)-6-((Z)-2-(2-aminothiazol-4-yl)-2-(((S)-1-carboxy-2-methylpropoxy)imino)acetamido)-3-(3-(2-(2-chloro-3,4-dihydroxyphenyl)-2-oxoacetamido)-2-oxoimidazolidin-1-yl)-7-oxo-4-thia-1-azabicyclo[3.2.0]heptane-3-carboxylate]
[10]
  responders at 40 mg/kg: ≥ 90%

## CC(C)(O/N=C(\C(=O)N[C@@H]1C(=O)N2C[C@@](C(=O)O)(N3CCN(NC(=O)/C(=N\O)c4ccc(O)c(O)c4Cl)C3=O)S[C@H]12)c1csc(N)n1)C(=O)O [Example 117, (3R,5R,6R)-6-((Z)-2-(2-aminothiazol-4-yl)-2-(((2-carboxypropan-2-yl)oxy)imino)acetamido)-3-(3-((Z)-2-(2-chloro-3,4-dihydroxyphenyl)-2-(hydroxyimino)acetamido)-2-oxoimidazolidin-1-yl)-7-oxo-4-thia-1-azabicyclo[3.2.0]heptane-3-carboxylate]
[10]
  responders at 40 mg/kg: ≥ 90%

## CC(C)(O/N=C(\C(=O)N[C@@H]1C(=O)N2C[C@@](C(=O)O)(N3CCN(NC(=O)CCNC(=O)/C(=N\O)c4ccc(O)c(O)c4Cl)C3=O)S[C@H]12)c1csc(N)n1)C(=O)O [Example 122, (3R,5R,6R)-6-((Z)-2-(2-aminothiazol-4-yl)-2-(((2-carboxypropan-2-yl)oxy)imino)acetamido)-3-(3-(3-((Z)-2-(2-chloro-3,4-dihydroxyphenyl)-2-(hydroxyimino)acetamido)propanamido)-2-oxoimidazolidin-1-yl)-7-oxo-4-thia-1-azabicyclo[3.2.0]heptane-3-carboxylate]
[10]
  responders at 40 mg/kg: ≥ 90%

## CC(C)(O/N=C(\C(=O)N[C@@H]1C(=O)N2C[C@@](C(=O)O)(N3CCN(NC(=O)C(=O)c4ccc(O)c(O)c4Cl)C(=O)C3=O)S[C@H]12)c1csc(N)n1)C(=O)O [Example 126, (3R,5R,6R)-6-((Z)-2-(2-aminothiazol-4-yl)-2-(((2-carboxypropan-2-yl)oxy)imino)acetamido)-3-(4-(2-(2-chloro-3,4-dihydroxyphenyl)-2-oxoacetamido)-2,3-dioxopiperazin-1-yl)-7-oxo-4-thia-1-azabicyclo[3.2.0]heptane-3-carboxylate]
[10]
  responders at 40 mg/kg: ≥ 90%

## COC[C@@H](NC(=O)C(=O)c1ccc(O)c(O)c1Cl)C(=O)NN1CCN([C@]2(C(=O)O)CN3C(=O)[C@@H](NC(=O)/C(=N\OC(C)(C)C(=O)O)c4csc(N)n4)[C@H]3S2)C1=O [Example 139, (3R,5R,6R)-6-((Z)-2-(2-aminothiazol-4-yl)-2-(((2-carboxypropan-2-yl)oxy)imino)acetamido)-3-(3-((R)-2-(2-(2-chloro-3,4-dihydroxyphenyl)-2-oxoacetamido)-3-methoxypropanamido)-2-oxoimidazolidin-1-yl)-7-oxo-4-thia-1-azabicyclo[3.2.0]heptane-3-carboxylate]
[10]
  responders at 40 mg/kg: ≥ 90%
